From patent US4576947A, “Pharmaceutical compositions” (Hoechst Aktiengesellschaft, priority 1972, dated 1986)

Assays:
[1] = test system: cerebral blood flow of cats; assay: Investigation of cerebral blood flow of cats (heat-conducting thermoprobe according to Hensel); type: in vivo; settings: for Change of blood perfusion half-value time: action time; for Change of blood perfusion Δ λ: heat transfer factor λ
Description: The test animals are cats under chloralose urethane narcosis (70+200 mg/kg i.p.). The top of the skull is opened in the area of the frontal gyrus marginalis or suprasylvicus. […] The action time is given as the half value time and the intensity of action is determined according to Golenhofen et al. as a heat transfer factor λ. The recording was performed with thermoprobes using a two-channel Pluvograph of Hartmann & Braun, Frankfurt am Main, Germany. Other circulation parameters recorded at the same time were fed to a Hellige multi-channel recorder.

[2] = Toxicity in mg/kg (mouse); settings: in vivo
[3] = test system: rate of blood circulation; settings: background statement, in words; cited from earlier work
[4] = background statement, in words; cited from earlier work
cerebral blood flow = assay: Cerebral blood flow, statements in the description; type: in vivo; settings: in words

| Structure (SMILES) | Change of blood perfusion half-value time ([1]; 5 mg/kg i.v.) [min] | Change of blood perfusion Δ λ ([1]; 5 mg/kg i.v.) | LD50 ([2]; ip) [mg/kg] | pharmacological activity [3] | Change of blood perfusion half-value time ([1]; 10 mg/kg i.v.) [min] | Change of blood perfusion Δ λ ([1]; 10 mg/kg i.v.) | Change of blood perfusion half-value time ([1]; 50 mg/kg i.v.) [min] | Change of blood perfusion Δ λ ([1]; 50 mg/kg i.v.) | Change of blood perfusion half-value time ([1]; 100 mg/kg i.v.) [min] | Change of blood perfusion Δ λ ([1]; 100 mg/kg i.v.) | water solubility and/or toxicity versus theobromine, theophylline and trialkylxanthines [4] | other results |
| --- | --- | --- | --- | --- | --- | --- | --- | --- | --- | --- | --- | --- |
| CC(O)CCCCn1cnc2c1c(=O)n(C)c(=O)n2C (stereo not shown) [1,3-dimethyl-7-(5-hydroxyhexyl)-xanthine] | 1.8 | +0.18 | 250 to 500 |  |  |  |  |  |  |  |  |  |
| CC(O)CCCCCn1cnc2c1c(=O)n(C)c(=O)n2C (stereo not shown) [1,3-dimethyl-7-(6-hydroxyheptyl)-xanthine] | 1.8 | +1.17 | 250 to 500 |  |  |  |  |  |  |  |  | Change of blood perfusion half-value time ([1]; 1 mg/kg i.v.): 0.6 min; Change of blood perfusion Δ λ ([1]; 1 mg/kg i.v.): +0.70; Change of blood perfusion half-value time ([1]; 2 mg/kg i.v.): 1.2 min; Change of blood perfusion Δ λ ([1]; 2 mg/kg i.v.): +0.42 |
| CC(O)Cn1c(=O)c2c(ncn2C)n(C)c1=O (stereo not shown) [1-(2-hydroxypropyl)-3,7-dimethylxanthine] | 0.50 | -0.25 |  | reduced pharmacological activity | 1.50 | -0.50 | 17.5 | -5.25 | 6.5 | -10.00 | greater degree of water solubility and/or lower toxicity than theobromine,theophylline and trialkylxanthines |  |
| CC(O)CCCCn1c(=O)c2c(ncn2C)n(C)c1=O (stereo not shown) [1-(5-hydroxyhexyl)-3,7-dimethylxanthine] | 5.0 | +1.55 |  |  | 3.5 | +2.65 |  |  |  |  |  | Change of blood perfusion half-value time ([1]; 3 mg/kg i.v.): 4.3 min; Change of blood perfusion Δ λ ([1]; 3 mg/kg i.v.): +1.80; LD50 ([2]; iv): 195 mg/kg |
| Cn1c(=O)c2c(ncn2CC(O)CO)n(C)c1=O (stereo not shown) [7-(2,3-dihydroxypropyl)-1,3-dimethylxanthine] |  |  |  | reduced pharmacological activity | 1.7 |  | 3.0 | +0.20 | 3.0 | -0.05 | greater degree of water solubility and/or lower toxicity than theobromine,theophylline and trialkylxanthines | Change of blood perfusion half-value time ([1]; 25 mg/kg i.v.): 6.0 min; Change of blood perfusion Δ λ ([1]; 25 mg/kg i.v.): -0.23 |
| CC(O)Cn1cnc2c1c(=O)n(C)c(=O)n2C (stereo not shown) [7-(2-Hydroxypropyl)-1,3-dimethyl-xanthine] |  |  |  | reduced pharmacological activity |  |  |  |  |  |  | greater degree of water solubility and/or lower toxicity than theobromine,theophylline and trialkylxanthines |  |
| Cn1c(=O)c2c(ncn2CCO)n(C)c1=O [7-(2-hydroxyethyl)-1,3-dimethylxanthine] | 0.23 | -0.50 |  |  | 0.50 | -1.33 | 7.17 | -5.33 | 8.00 | -6.00 |  | Change of blood perfusion half-value time ([1]; 25 mg/kg i.v.): 6.73 min; Change of blood perfusion Δ λ ([1]; 25 mg/kg i.v.): -2.17 |
| Cn1c(=O)c2[nH]cnc2n(C)c1=O.NCCN [theophylline-ethylenediamine, 1,3-dimethylxanthine-ethylene-diamine] | 3.3 | +0.18 | 217 |  | 1.7 | +0.53 |  |  |  |  |  | Change of blood perfusion half-value time ([1]; 1 mg/kg i.v.): 1.8 min; Change of blood perfusion Δ λ ([1]; 1 mg/kg i.v.): +0.19; Change of blood perfusion half-value time ([1]; 2 mg/kg i.v.): 1.8 min; Change of blood perfusion Δ λ ([1]; 2 mg/kg i.v.): +0.15; action on cerebral blood flow (cerebral blood flow): increases the cerebral blood flow, but only to a limited extent and only for a short time |
